Source: US4774381A, “Herbicide resistant tobacco” (E. I. Du Pont de Nemours and Company, priority 1985, dated 1988)

What was measured:
[1] = system: acetolactate synthase (ALS), Isolate 10 (S4/+) extract; experiment: ALS activity assay in cell extracts; type: biochemical, Nicotiana tabacum
Experimental: (§1) Cell suspension cultures of normal (H1) and homozygous mutant (Isolate 16) cell lines were washed in C1 liquid medium. After washing, cells were extracted in a 100 mM potassium phosphate buffer (pH 7.5) containing 0.5 mM MgCl2, 1 mM sodium pyruvate, 0.5 mM thiamine pyrophosphate, 10 micromolar flavine-adenine dinucleotide (FAD) and 10 percent (by volume) glycerol. Polyclar AT (BDH Chemicals Ltd) was added to a final concentration of 250 mg per gram fresh weight of tissue. After centrifugation at 27,000xg for 15 minutes at 4°, an equal volume of a saturated solution of amminium sulfate was added to the supernatant fraction. The resultant precipitate (representing a 0 to 50 percent ammonium sulfate fraction) was redissolved in 100 mM potassium phosphate buffer (pH 7.5) containing 0.5 mM MgCl2, 1 mM sodium pyruvate, and salts were removed by passage through a Sephadex G-25 (Pharmacia PD-10) column.
(§2) ALS activity was assayed in a total volume of 500 microliters containing 100 microliters of the column eluate, 65 mM potassium phosphate buffer (pH 7.5) containing 10 mM MgCl2, 40 mM sodium pyruvate, 250 micromolar thiamine pyrophosphate, 23 micromolar FAD, […] After incubation at 30° for 90 minutes, 250 microliters of 6N H2 SO4 was added to each assay tube, and the tubes were incubated at 55° for 10 minutes to terminate the enzymatic reaction and achieve complete conversion of acetolactate to acetoin. Acetoin content was then measured by a modification of the procedure described by Westerfield, J. Biol. Chem. 161:495 (1945). To each tube was added sequentially 100 microliters 50 percent NaOH, 150 microliters 0.5 percent creatine, and 150 microliters 5 percent alpha-napthol (in 2.5N NaOH). Color development was accelerated by incubation at 55° for 10 minutes. Tubes were then centrifuged, and the optical density was read at 530 nm. Background optical densities, which were subtracted from the optical density values of the reactions, were determined for each extract from parallel assays to which the enzyme extract was added after the addition of 6N H2 SO4. Protein concentrations were measured with Bio-Rad Protein Assay reagent with bovine serum albumin as a standard. Data points and specific activities, which are set forth below and in FIG. 2, represent the average values of at least three independent determinations. ALS activities are presented in FIG. 2 as percent activity in the absence of herbicide.
(§3) Responses to chlorsulfuron were determined for ALS activities in extracts of cells suspension cultures derived from nine individuals that differed with resepct to the S4 mutation. As described above, these individuals were produced by self-fertilization of an S4/+ heterozygote, and their genotypes were established by means of progeny analysis. Callus and plant phenotypes were determined by growth responses of cell cultures and seedlings, respectively, on herbicide-supplemented medium. […] In contrast, all individuals homozygous for the S4 mutation contained a highly resistant form of the enzyme. […] The correlation between both callus and plant phenotype and the response of ALS activity in vitro to the herbicide is both absolute and quantitative.

[2] = system: acetolactate synthase (ALS), Isolate 23 (S4/+) extract; experiment: ALS activity assay in cell extracts; type: biochemical, Nicotiana tabacum
Experimental: as §1, §2, §3

H1 callus culture = experiment: Callus growth on chlorsulfuron-supplemented medium; type: cell-based, Nicotiana tabacum; conditions: chlorsulfuron at 5 ppb (14 nM); also: key: Callus cultures capable of growth on this medium are designated R (resistant); S denotes sensitive callus cultures that did not grow in the presence of the herbicide
Experimental: (§4) Table 7, below, indicates sensitivity to chlorsulfuron of ALS activities in progeny of an S4/+ heterozygote. Data are presented as percent of ALS activity in the absence of chlorsulfuron. Each number represents the average of at least three independent experiments. Callus cultures initiated from the individual isolates were tested for growth on medium supplemented with chlorsulfuron at 5 ppb (14 nM).

[3] = system: Isolate 1 (+/+) callus culture; experiment: Callus growth on chlorsulfuron-supplemented medium; type: cell-based, Nicotiana tabacum; conditions: chlorsulfuron at 5 ppb (14 nM); also: key: Callus cultures capable of growth on this medium are designated R (resistant); S denotes sensitive callus cultures that did not grow in the presence of the herbicide
Experimental: as §4

[4] = system: Isolate 10 (S4/+) callus culture; experiment: Callus growth on chlorsulfuron-supplemented medium; type: cell-based, Nicotiana tabacum; conditions: chlorsulfuron at 5 ppb (14 nM); also: key: Callus cultures capable of growth on this medium are designated R (resistant); S denotes sensitive callus cultures that did not grow in the presence of the herbicide
Experimental: as §4

[5] = system: Isolate 16 (S4/S4) callus culture; experiment: Callus growth on chlorsulfuron-supplemented medium; type: cell-based, Nicotiana tabacum; conditions: chlorsulfuron at 5 ppb (14 nM); also: key: Callus cultures capable of growth on this medium are designated R (resistant); S denotes sensitive callus cultures that did not grow in the presence of the herbicide
Experimental: as §4

[6] = system: Isolate 23 (S4/+) callus culture; experiment: Callus growth on chlorsulfuron-supplemented medium; type: cell-based, Nicotiana tabacum; conditions: chlorsulfuron at 5 ppb (14 nM)
Experimental: as §4

[7] = system: Isolate 24 (S4/+) callus culture; experiment: Callus growth on chlorsulfuron-supplemented medium; type: cell-based, Nicotiana tabacum; conditions: chlorsulfuron at 5 ppb (14 nM)
Experimental: as §4

[8] = system: Isolate 27 (S4/S4) callus culture; experiment: Callus growth on chlorsulfuron-supplemented medium; type: cell-based, Nicotiana tabacum; conditions: chlorsulfuron at 5 ppb (14 nM)
Experimental: as §4

[9] = system: Isolate 30 (S4/S4) callus culture; experiment: Callus growth on chlorsulfuron-supplemented medium; type: cell-based, Nicotiana tabacum; conditions: chlorsulfuron at 5 ppb (14 nM)
Experimental: as §4

[10] = system: Isolate 7 (+/+) callus culture; experiment: Callus growth on chlorsulfuron-supplemented medium; type: cell-based, Nicotiana tabacum; conditions: chlorsulfuron at 5 ppb (14 nM)
Experimental: as §4

[11] = system: Isolate 9 (S4/+) callus culture; experiment: Callus growth on chlorsulfuron-supplemented medium; type: cell-based, Nicotiana tabacum; conditions: chlorsulfuron at 5 ppb (14 nM)
Experimental: as §4

[12] = system: highly resistant tobacco cell line "A"; experiment: Growth test of highly resistant cell line; type: cell-based, Nicotiana tabacum
From the text: Resistant colonies were selected as they appeared and transferred to medium containing this same elevated level of sulfometuron-methyl. Several cell lines that continued to grow during subsequent passages in the presence of 200 ppb of the herbicide were isolated. […] A large part of this resistance is the result of the S4 mutation, for which this cell line is homozygous. However, because cell line A is inhibited by 100 ppb sulfometuron-methyl to approximatey the same degree as its parent S4/S4 is inhibited by 10 ppb, it appears that the new event increased resistance ten-fold beyond that conferred by the S4/S4 genotype.

Salmonella typhimurium = conditions: in the presence of valine; reversed by isoleucine; cited from earlier work

COc1nc(C)nc(NC(=O)NS(=O)(=O)c2ccccc2Cl)n1 [Chlorsulfuron, chlorsulfuron]
Uninhibited activity (%) in the Presence of Chlorsulfuron ([1]; 10 ppb): 61%
Uninhibited activity (%) in the Presence of Chlorsulfuron ([1]; 30 ppb): 52%
Uninhibited activity (%) in the Presence of Chlorsulfuron ([1]; 100 ppb): 45%
Uninhibited activity (%) in the Presence of Chlorsulfuron ([2]; 10 ppb): 64%
Uninhibited activity (%) in the Presence of Chlorsulfuron ([2]; 30 ppb): 53%
Uninhibited activity (%) in the Presence of Chlorsulfuron ([2]; 100 ppb): 46%
Callus Phenotype (H1 callus culture): S
Callus Phenotype [3]: S
Callus Phenotype [4]: R
Callus Phenotype [5]: R
Callus Phenotype [6]: R
Callus Phenotype [7]: R
Callus Phenotype [8]: R
Callus Phenotype [9]: R
Callus Phenotype [10]: S
Callus Phenotype [11]: R

COC(=O)c1ccccc1S(=O)(=O)NC(=O)Nc1nc(C)cc(C)n1 [Sulfometuron-methyl, sulfometuron-methyl]
increase of resistance beyond that conferred by the S4/S4 genotype ([12]; 100 ppb on cell line A versus 10 ppb on S4/S4): ten-fold
activity at 0.001 µg/mL ([12]; Nicotiana tabacum, sulfometuron-methyl 1 ppb, cell line "A", read-out: % of fresh weight at 0 ppb): 90%
activity at 0.01 µg/mL ([12]; Nicotiana tabacum, sulfometuron-methyl 10 ppb, cell line "A", read-out: % of fresh weight at 0 ppb): 74%
activity at 0.1 µg/mL ([12]; Nicotiana tabacum, sulfometuron-methyl 100 ppb, cell line "A", read-out: % of fresh weight at 0 ppb): 24%
activity at 1 µg/mL ([12]; Nicotiana tabacum, sulfometuron-methyl 1000 ppb, cell line "A", read-out: % of fresh weight at 0 ppb): 10%
concentration allowing growth relative to concentration that completely inhibits a normal cell line ([12]; growth at a greatly reduced rate): 1000 times
Fr. wt. ([12]; sulfometuron-methyl 1 ppb, cell line "A"): 2379 ± 243 mg
Fr. wt. ([12]; sulfometuron-methyl 10 ppb, cell line "A"): 1952 ± 133 mg
Fr. wt. ([12]; sulfometuron-methyl 100 ppb, cell line "A"): 629 ± 72 mg
Fr. wt. ([12]; sulfometuron-methyl 1000 ppb, cell line "A"): 263 ± 83 mg
growth effect (Salmonella typhimurium): inhibits growth
